Values belong to the compound of their own block, whether it stands above or below them.
What was measured:
[1] = molecular target: T1, human mAChR M1 (Homo sapiens, UniProt P11229); test: mAChR M1 cell-based functional assay (calcium mobilization), agonist mode: compound alone, Emax relative to acetylcholine maximum; conditions: for EC50 / Agonist Activity Human M1 EC50: human mAChR M1; for Emax: relative to the maximum for acetylcholine
T1 sequence (P11229 1-460): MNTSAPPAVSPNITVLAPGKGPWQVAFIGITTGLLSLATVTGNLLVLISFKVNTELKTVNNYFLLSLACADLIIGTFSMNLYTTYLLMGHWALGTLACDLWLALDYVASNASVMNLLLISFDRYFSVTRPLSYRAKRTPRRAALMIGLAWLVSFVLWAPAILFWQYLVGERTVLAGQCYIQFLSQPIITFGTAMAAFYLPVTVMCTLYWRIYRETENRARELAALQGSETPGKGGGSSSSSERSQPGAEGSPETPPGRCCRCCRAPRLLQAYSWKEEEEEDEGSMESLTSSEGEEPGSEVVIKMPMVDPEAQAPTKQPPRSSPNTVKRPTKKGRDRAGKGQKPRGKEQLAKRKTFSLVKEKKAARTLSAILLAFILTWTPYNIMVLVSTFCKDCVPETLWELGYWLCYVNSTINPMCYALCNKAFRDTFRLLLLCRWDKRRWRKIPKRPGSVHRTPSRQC
Summary of the method: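 Agonist activity is the concentration-dependent rise in intracellular calcium (Fluo-4, 1 Hz read) after compound addition, measured before any acetylcholine was added, in stable hM1 CHO-K1 cells. Curves were 11-point, 1:3 dilutions fitted by four-parameter logistic. Emax is given as a fraction of maximal acetylcholine response.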

[2] = molecular target: T1, human mAChR M1; test: mAChR M1 cell-based functional assay (calcium mobilization), PAM mode: increase in the EC20 acetylcholine response
Summary of the method: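 PAM readout is the concentration-dependent rise in the EC20 acetylcholine calcium signal, fitted to a four-parameter logistic (EC50, Emax). Compounds were preincubated from 4 s before ACh at 144 s (EC20) and 230 s (EC80). hM1-expressing CHO-K1 cells loaded with Fluo-4, FDSS ratio read.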

Compound: [2H]C1([2H])c2ncccc2C(=O)N1Cc1c(F)cc(-c2ccc(OCS(C)(=O)=O)c3nn(C)cc23)cc1F [Compound 186, 6-(2,6-difluoro-4-(2-methyl-7-((methylsulfonyl)methoxy)-2H-indazol-4-yl)benzyl)-6,7-dihydro-5H-pyrrolo[3,4-b]pyridin-5-one-7,7-d2]
EC50 [1]: 7230 nM
Emax [1]: 15%
EC50 [2]: 391 nM
Emax [2]: 72%

Compound: [2H]C1([2H])c2ncccc2C(=O)N1Cc1c(F)cc(-c2ccc(OC3CN(S(=O)(=O)C(C)C)C3)c3nn(C)cc23)cc1F [Compound 187, 6-(2,6-difluoro-4-(7-((1-(isopropylsulfonyl)azetidin-3-yl)oxy)-2-methyl-2H-indazol-4-yl)benzyl)-6,7-dihydro-5H-pyrrolo[3,4-b]pyridin-5-one-7,7-d2]
Agonist Activity Human M1 EC50 [1]: Inactive
Emax [1]: 1%
EC50 [2]: 473 nM
Emax [2]: 67%

Compound: [2H]C1([2H])c2ncccc2C(=O)N1Cc1c(F)cc(-c2ccnc3nn(C([2H])([2H])[2H])cc23)cc1F [Compound 188, 6-(2,6-difluoro-4-(2-(methyl-d3)-2H-pyrazolo[3,4-b]pyridin-4-yl)benzyl)-6,7-dihydro-5H-pyrrolo[3,4-b]pyridin-5-one-7,7-d2]
Agonist Activity Human M1 EC50 [1]: Inactive
Emax [1]: 9%
EC50 [2]: 2710 nM
Emax [2]: 71%

Compound: [2H]C1([2H])c2ncccc2C(=O)N1Cc1c(F)cc(-c2ccc(OC3CN(C4CCCCC4)C3)c3nn(C)cc23)cc1F [Compound 189, 6-(4-(7-((1-cyclohexylazetidin-3-yl)oxy)-2-methyl-2H-indazol-4-yl)-2,6-difluorobenzyl)-6,7-dihydro-5H-pyrrolo[3,4-b]pyridin-5-one-7,7-d2]
Agonist Activity Human M1 EC50 [1]: Inactive
Emax [1]: 3%
EC50 [2]: 629 nM
Emax [2]: 72%

Compound: [2H]C1([2H])c2ncccc2C(=O)N1Cc1c(C)cc(-c2ccc3nn(C)cc3c2)cc1F [Compound 194, 6-(2-fluoro-6-methyl-4-(2-methyl-2H-indazol-5-yl)benzyl)-6,7-dihydro-5H-pyrrolo[3,4-b]pyridin-5-one-7,7-d2]
EC50 [1]: 3550 nM
Emax [1]: 18%
EC50 [2]: 437 nM
Emax [2]: 83%

Compound: [2H]C1([2H])c2ncccc2C(=O)N1Cc1c(C)cc(-c2ccc(OC)c3nn(C)cc23)cc1F [Compound 195, 6-(2-fluoro-4-(7-methoxy-2-methyl-2H-indazol-4-yl)-6-methylbenzyl)-6,7-dihydro-5H-pyrrolo[3,4-b]pyridin-5-one-7,7-d2]
EC50 [1]: 3730 nM
Emax [1]: 43%
EC50 [2]: 198 nM
Emax [2]: 79%

Compound: [2H]C1([2H])c2ncccc2C(=O)N1Cc1c(C)cc(-c2ccc(OC3CC3)c3nn(C)cc23)cc1F [Compound 196, 6-(4-(7-cyclopropoxy-2-methyl-2H-indazol-4-yl)-2-fluoro-6-methylbenzyl)-6,7-dihydro-5H-pyrrolo[3,4-b]pyridin-5-one-7,7-d2]
EC50 [1]: 8680 nM
Emax [1]: 43%
EC50 [2]: 437 nM
Emax [2]: 83%

Compound: [2H]C1([2H])c2ncccc2C(=O)N1Cc1c(C)cc(-c2ccc(C)c3nn(C)cc23)cc1F [Compound 197, 6-(4-(2,7-dimethyl-2H-indazol-4-yl)-2-fluoro-6-methylbenzyl)-6,7-dihydro-5H-pyrrolo[3,4-b]pyridin-5-one-7,7-d2]
EC50 [1]: ≥ 10000 nM
Emax [1]: 37%
EC50 [2]: 433 nM
Emax [2]: 85%

Compound: [2H]C1([2H])c2ncccc2C(=O)N1Cc1c(C)cc(-c2ccc(F)c3nn(C)cc23)cc1F [Compound 198, 6-(2-fluoro-4-(7-fluoro-2-methyl-2H-indazol-4-yl)-6-methylbenzyl)-6,7-dihydro-5H-pyrrolo[3,4-b]pyridin-5-one-7,7-d2]
EC50 [1]: 5600 nM
Emax [1]: 30%
EC50 [2]: 347 nM
Emax [2]: 79%

Compound: [2H]C1([2H])c2ncccc2C(=O)N1Cc1c(C)cc(-c2ccc(Cl)c3nn(C)cc23)cc1F [Compound 199, 6-(4-(7-chloro-2-methyl-2H-indazol-4-yl)-2-fluoro-6-methylbenzyl)-6,7-dihydro-5H-pyrrolo[3,4-b]pyridin-5-one-7,7-d2]
Agonist Activity Human M1 EC50 [1]: Inactive
Emax [1]: 4%
EC50 [2]: 475 nM
Emax [2]: 81%

Compound: [2H]C1([2H])c2ncccc2C(=O)N1Cc1c(C)cc(-c2ccc(C(F)(F)F)c3nn(C)cc23)cc1F [Compound 200, 6-(2-fluoro-6-methyl-4-(2-methyl-7-(trifluoromethyl)-2H-indazol-4-yl)benzyl)-6,7-dihydro-5H-pyrrolo[3,4-b]pyridin-5-one-7,7-d2]
EC50 [1]: ≥ 10000 nM
Emax [1]: 15%
EC50 [2]: 768 nM
Emax [2]: 83%

Compound: [2H]C1([2H])c2ncccc2C(=O)N1Cc1c(C)cc(-c2ccnc3nn(C)cc23)cc1F [Compound 201, 6-(2-fluoro-6-methyl-4-(2-methyl-2H-pyrazolo[3,4-b]pyridin-4-yl)benzyl)-6,7-dihydro-5H-pyrrolo[3,4-b]pyridin-5-one-7,7-d2]
EC50 [1]: 5200 nM
Emax [1]: 43%
EC50 [2]: 332 nM
Emax [2]: 83%

Compound: [2H]C1([2H])c2ncccc2C(=O)N1Cc1c(F)cc(-c2ccc(OCCOC)c3nn(C)cc23)cc1C1CC1 [Compound 203, 6-(2-cyclopropyl-6-fluoro-4-(7-(2-methoxyethoxy)-2-methyl-2H-indazol-4-yl)benzyl)-6,7-dihydro-5H-pyrrolo[3,4-b]pyridin-5-one-7,7-d2]
EC50 [1]: 2560 nM
Emax [1]: 63%
EC50 [2]: 815 nM
Emax [2]: 75%

Results, then the compound that gave them:

EC50 [1]: 7520 nM
Emax [1]: 37%
EC50 [2]: 119 nM
Emax [2]: 84%
Compound: [2H]C1([2H])c2ncccc2C(=O)N1Cc1c(F)cc(-c2cccc3nn(C([2H])([2H])[2H])cc23)cc1C1CC1 [Compound 190, 6-(2-Cyclopropyl-6-fluoro-4-(2-(methyl-d3)-2H-indazol-4-yl)benzyl)-6,7-dihydro-5H-pyrrolo[3,4-b]pyridin-5-one-7,7-d2]

Agonist Activity Human M1 EC50 [1]: Inactive
Emax [1]: 2%
EC50 [2]: 1050 nM
Emax [2]: 58%
Compound: [2H]C1([2H])c2ncccc2C(=O)N1Cc1c(F)cc(-c2cccc3nn(C([2H])([2H])[2H])c(F)c23)cc1C1CC1 [Compound 191, 6-(2-Cyclopropyl-6-fluoro-4-(3-fluoro-2-(methyl-d3)-2H-indazol-4-yl)benzyl)-6,7-dihydro-5H-pyrrolo[3,4-b]pyridin-5-one-7,7-d2]

EC50 [1]: 5960 nM
Emax [1]: 44%
EC50 [2]: 137 nM
Emax [2]: 84%
Compound: [2H]C1([2H])c2ncccc2C(=O)N1Cc1c(F)cc(-c2cccc3nn(C)cc23)cc1C1CC1 [Compound 192, 6-(2-cyclopropyl-6-fluoro-4-(2-methyl-2H-indazol-4-yl)benzyl)-6,7-dihydro-5H-pyrrolo[3,4-b]pyridin-5-one-7,7-d2]

EC50 [1]: 9830 nM
Emax [1]: 11%
EC50 [2]: 266 nM
Emax [2]: 88%
Compound: [2H]C1([2H])c2ncccc2C(=O)N1Cc1c(F)cc(-c2ccc3nn(C)cc3c2)cc1C1CC1 [Compound 193, 6-(2-cyclopropyl-6-fluoro-4-(2-methyl-2H-indazol-5-yl)benzyl)-6,7-dihydro-5H-pyrrolo[3,4-b]pyridin-5-one-7,7-d2]

EC50 [1]: 3240 nM
Emax [1]: 44%
EC50 [2]: 429 nM
Emax [2]: 81%
Compound: [2H]C1([2H])c2ncccc2C(=O)N1Cc1c(F)cc(-c2ccc(OC3CC3)c3nn(C)cc23)cc1C1CC1 [Compound 202, 6-(4-(7-cyclopropoxy-2-methyl-2H-indazol-4-yl)-2-cyclopropyl-6-fluorobenzyl)-6,7-dihydro-5H-pyrrolo[3,4-b]pyridin-5-one-7,7-d2]

EC50 [1]: 7450 nM
Emax [1]: 49%
EC50 [2]: 293 nM
Emax [2]: 70%
Compound: [2H]C1([2H])c2ncccc2C(=O)N1Cc1c(F)cc(-c2ccc(C)c3nn(C)cc23)cc1C1CC1 [Compound 204, 6-(2-cyclopropyl-4-(2,7-dimethyl-2H-indazol-4-yl)-6-fluorobenzyl)-6,7-dihydro-5H-pyrrolo[3,4-b]pyridin-5-one-7,7-d2]

EC50 [1]: 5980 nM
Emax [1]: 54%
EC50 [2]: 248 nM
Emax [2]: 86%
Compound: [2H]C1([2H])c2ncccc2C(=O)N1Cc1c(F)cc(-c2ccc(F)c3nn(C)cc23)cc1C1CC1 [Compound 205, 6-(2-cyclopropyl-6-fluoro-4-(7-fluoro-2-methyl-2H-indazol-4-yl)benzyl)-6,7-dihydro-5H-pyrrolo[3,4-b]pyridin-5-one-7,7-d2]

EC50 [1]: 9700 nM
Emax [1]: 38%
EC50 [2]: 335 nM
Emax [2]: 81%
Compound: [2H]C1([2H])c2ncccc2C(=O)N1Cc1c(F)cc(-c2ccc(Cl)c3nn(C)cc23)cc1C1CC1 [Compound 206, 6-(4-(7-chloro-2-methyl-2H-indazol-4-yl)-2-cyclopropyl-6-fluorobenzyl)-6,7-dihydro-5H-pyrrolo[3,4-b]pyridin-5-one-7,7-d2]

From patent US20240228489A1, “POSITIVE ALLOSTERIC MODULATORS OF THE MUSCARINIC ACETYLCHOLINE RECEPTOR M1” (Vanderbilt University, priority 2021, published 2024)
